Test results taken from US10052392B2, “Low molecular weight polyethylene glycol drug conjugates having improved drug biological activity” (JENKEM TECHNOLOGY CO., LTD. (TIANJIN), priority 2013, dated 2018).
Where two headings read alike, the source gives them in different places. One block for each compound: values may come before it.

Key:
K562 = assay: Inhibition of cell proliferation, CTG method, 72 hours; assay type: cell-based; conditions: K562 cells
Procedure: (§1) Cells are cultured under a complete culture medium; when cells are attached to the wall, drug of different concentrations is added in each tumor cell line for treatment, and a positive control, a blank control and a solvent control are set. Cells are incubated for 72 hours and then CTG method is used for detection.

KU812 = assay: as above; assay type: cell-based; conditions: KU812 cells
Procedure: as §1

PC-3 = assay: as above; assay type: cell-based; conditions: PC-3 cells
Procedure: as §1

SUP-B15 = assay: as above; assay type: cell-based; conditions: SUP-B15 cells
Procedure: as §1

Caco-2 cell monolayer [1] = assay: Caco-2 cell monolayer transmembrane transport (unidirectional and bidirectional); conditions: for Papp (*10^−6)A→B: Caco-2, A→B; for Papp (*10^−6)A→B / Papp (*10^−6)B→A: 90 min incubation; for Papp (*10^−6)B→A: Caco-2, B→A; for Papp (B→A)/Papp (A→B): Caco-2 efflux ratio, >2 suggests efflux transporter
Procedure: (§2) Wherein dQ is an accumulated penetration amount of a drug receiving pond with a measure unit pmol; dt is incubation time with a measure unit min; A is a diffusion area with a measure unit cm^2; C0 is an initial administration concentration of an administrating pond with a measure unit μmol. L^−1; Papp has a measure unit cm/s.
(§3) An evaluation objective of the bidirectional transport is to preliminary observe that the transmembrane transport of the object to be tested has active transport procedure mediated by an efflux transporter.

[2] = as above; conditions: human, Caco-2
Procedure: as §2, §3

[3] = Absolute bioavailability, intravenous vs intragastric administration; assay type: in vivo; conditions: male SD rat, intragastric vs tail intravenous injection
Procedure: Animal: male SD rat Groups of the experiment: intravenous injection group and oral administration group, four rats being provided for each rat Administration manner: tail intravenous injection, intragastric administration Data processing: an area under a curve is calculated for intravenous injection and oral administration by using a trapezoidal method, and a bioavailability is calculated by using the following formula: […]

Caco-2 cell monolayer [4] = tested on: Caco-2 cell monolayer
Procedure: as §2, §3

Compound: Cc1nc(Nc2ncc(C(=O)Nc3c(C)cccc3Cl)s2)cc(N2CCN(CCOCCOCCOCCOCCOCCN3CCN(c4cc(Nc5ncc(C(=O)Nc6c(C)cccc6Cl)s5)nc(C)n4)CC3)CC2)n1 [DSTN-42, Double End-substituted Tetraethylene Glycol-dasatinib]
IC50 (K562): 0.5 nM | Maximum inhibition rate (K562): 80.34% | IC50 (KU812): 0.79 nM | Maximum inhibition rate (KU812): 96.91% | Maximum inhibition rate (PC-3): 30.97% | IC50 (SUP-B15): 50 nM | Maximum inhibition rate (SUP-B15): 93.36% | Papp (*10^−6)A→B (Caco-2 cell monolayer [1]): 4.57 ± 0.87 *10^−6 cm/s | Papp (*10^−6)B→A (Caco-2 cell monolayer [1]): 11.43 ± 0.72 *10^−6 cm/s | Papp (B→A)/Papp (A→B) (Caco-2 cell monolayer [1]): 2.50

Compound: Cc1nc(Nc2ncc(C(=O)Nc3c(C)cccc3Cl)s2)cc(N2CCN(CCOCCOCCOCCOCCOCCOCCOCCN3CCN(c4cc(Nc5ncc(C(=O)Nc6c(C)cccc6Cl)s5)nc(C)n4)CC3)CC2)n1 [DSTN-62, Double Endhexaethylene Glycol-dasatinib]
IC50 (K562): 0.34 nM | Maximum inhibition rate (K562): 81.76% | IC50 (KU812): 0.49 nM | Maximum inhibition rate (KU812): 96.00% | Maximum inhibition rate (PC-3): 29.74% | IC50 (SUP-B15): 60 nM | Maximum inhibition rate (SUP-B15): 81.47% | Papp (*10^−6)A→B (Caco-2 cell monolayer [1]): 6.44 ± 0.11 *10^−6 cm/s | Papp (*10^−6)B→A (Caco-2 cell monolayer [1]): 15.01 ± 0.59 *10^−6 cm/s | Papp (B→A)/Papp (A→B) (Caco-2 cell monolayer [1]): 2.33

Papp (*10^−6)A→B (Caco-2 cell monolayer [1]): 8.96 ± 0.35 *10^−6 cm/s | Papp (*10^−6)B→A (Caco-2 cell monolayer [1]): 23.67 ± 0.45 *10^−6 cm/s | Papp (B→A)/Papp (A→B) (Caco-2 cell monolayer [1]): 2.64
Compound: CCN[C@H]1C[C@H](C)S(=O)(=O)c2sc(S(=O)(=O)NCCOCCOCCOCCOCCOCCOCCOCCOCCOCCOCCOCCNS(=O)(=O)c3cc4c(s3)S(=O)(=O)[C@@H](C)C[C@@H]4NCC)cc21 [DZA-03, Double End Substituted Odecylethyleneglycol-dorzolamide]

Papp A→B at 90 min [2]: 8.86 ± 0.51 ×10⁻⁶ cm/s | Papp B→A at 90 min [2]: 18.1 ± 0.32 ×10⁻⁶ cm/s | efflux ratio at 90 min [2]: 2.05
Compound: CCN[C@H]1C[C@H](C)S(=O)(=O)c2sc(S(=O)(=O)NCCOCC(COCCNS(=O)(=O)c3cc4c(s3)S(=O)(=O)[C@@H](C)C[C@@H]4NCC)(COCCNS(=O)(=O)c3cc4c(s3)S(=O)(=O)[C@@H](C)C[C@@H]4NCC)COCCNS(=O)(=O)c3cc4c(s3)S(=O)(=O)[C@@H](C)C[C@@H]4C)cc21 [DZA-06, Four-Branch Ethyleneglycol-dorzolamide Conjugate]

bioavailability ([3]; blood, oral): 17% | Papp A→B at 90 min [2]: 10.6 ± 0.36 ×10⁻⁶ cm/s | Papp B→A at 90 min [2]: 15.5 ± 0.06 ×10⁻⁶ cm/s | efflux ratio at 90 min [2]: 1.47
Compound: CN(C)CCc1c[nH]c2ccc(CS(=O)(=O)N(C)CCOCCOCCOCCOCCOCCN(C)S(=O)(=O)Cc3ccc4[nH]cc(CCN(C)C)c4c3)cc12 [SMQT-01, Double End-substituted Hexaethyleneglycol-sumatriptan]

absolute bioavailability [3]: 23% | Papp (*10^−6)A→B (Caco-2 cell monolayer [4]): 9.87 ± 0.03 *10^−6 cm/s | Papp (*10^−6)B→A (Caco-2 cell monolayer [4]): 14.52 ± 0.12 *10^−6 cm/s
Compound: CN(C)CCc1c[nH]c2ccc(CS(=O)(=O)N(C)CCOCCOCCOCCOCCN(C)S(=O)(=O)Cc3ccc4[nH]cc(CCN(C)C)c4c3)cc12 [SMQT-02, Double End-substituted Pentaethyleneglycol-sumatriptan]

absolute bioavailability [3]: 25% | Papp (*10^−6)A→B (Caco-2 cell monolayer [4]): 6.25 ± 0.51 *10^−6 cm/s | Papp (*10^−6)B→A (Caco-2 cell monolayer [4]): 11.06 ± 0.21 *10^−6 cm/s
Compound: CN(C)CCc1c[nH]c2ccc(CS(=O)(=O)N(C)CCOCCOCCN(C)S(=O)(=O)Cc3ccc4[nH]cc(CCN(C)C)c4c3)cc12 [SMQT-03, Double End-substituted Triethylene Glycol-sumatriptan]

Papp (*10^−6)A→B (Caco-2 cell monolayer [1]): 12.32 ± 0.34 *10^−6 cm/s | Papp (*10^−6)B→A (Caco-2 cell monolayer [1]): 25.50 ± 1.21 *10^−6 cm/s | Papp (B→A)/Papp (A→B) (Caco-2 cell monolayer [1]): 2.07
Compound: Double End Substituted Hexaethyleneglycol-dorzolamide [DZA-02]

Papp (*10^−6)A→B (Caco-2 cell monolayer [1]): 11.54 ± 0.36 *10^−6 cm/s | Papp (*10^−6)B→A (Caco-2 cell monolayer [1]): 15.50 ± 0.06 *10^−6 cm/s | Papp (B→A)/Papp (A→B) (Caco-2 cell monolayer [1]): 1.34
Compound: Single End Substituted Pentaethyleneglycol-dorzolamide [DZA-01]
